pEC50, pIC50: −log10 of the molar value. Calls of active or inactive are those of the source. The calls are words filed in the database; no cut-off is given here. Peptide text beside a SMILES is read from it. Bounds are passed on as bounds.

The target in test [1] is T1, C3a anaphylatoxin chemotactic receptor (Homo sapiens, UniProt Q16581).
T1 sequence (Q16581 whole entry): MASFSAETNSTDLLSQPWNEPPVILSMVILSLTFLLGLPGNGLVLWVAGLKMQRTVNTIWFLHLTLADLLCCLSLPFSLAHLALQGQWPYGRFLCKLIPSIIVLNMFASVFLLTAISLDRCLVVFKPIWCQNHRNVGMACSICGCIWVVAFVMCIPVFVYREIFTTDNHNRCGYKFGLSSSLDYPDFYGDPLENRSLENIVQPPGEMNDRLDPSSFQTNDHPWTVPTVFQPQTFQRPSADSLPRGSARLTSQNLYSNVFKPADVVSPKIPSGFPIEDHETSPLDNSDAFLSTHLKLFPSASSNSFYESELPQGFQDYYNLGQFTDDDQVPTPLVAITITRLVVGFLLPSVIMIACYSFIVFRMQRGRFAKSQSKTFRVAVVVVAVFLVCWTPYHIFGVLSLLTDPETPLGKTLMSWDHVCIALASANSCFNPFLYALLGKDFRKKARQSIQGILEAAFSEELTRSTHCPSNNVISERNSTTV
As to the kind of experiment: Displacement of [125I-C3a] from C3a receptor in human PBMC by scintillation counting. Particulars: for pIC50: read-out: IC50. (In general: Loss of bound radioactivity is the signal in a displacement assay; it reports binding, not function.)

The target of test [2] is T1, C3a anaphylatoxin chemotactic receptor. As to the kind of experiment: Agonist activity at human C3a receptor in human U937 cells assessed as induction of intracellular calcium release. The format is functional, cell-based, U-937. The settings on record: for pEC50: read-out: EC50. (Calcium flux is commonly read through the fluorescence of an indicator in the cells.)
The target of test [3] is T2, C5a anaphylatoxin chemotactic receptor 1 (Homo sapiens, UniProt P21730).
T2 sequence (P21730 whole entry): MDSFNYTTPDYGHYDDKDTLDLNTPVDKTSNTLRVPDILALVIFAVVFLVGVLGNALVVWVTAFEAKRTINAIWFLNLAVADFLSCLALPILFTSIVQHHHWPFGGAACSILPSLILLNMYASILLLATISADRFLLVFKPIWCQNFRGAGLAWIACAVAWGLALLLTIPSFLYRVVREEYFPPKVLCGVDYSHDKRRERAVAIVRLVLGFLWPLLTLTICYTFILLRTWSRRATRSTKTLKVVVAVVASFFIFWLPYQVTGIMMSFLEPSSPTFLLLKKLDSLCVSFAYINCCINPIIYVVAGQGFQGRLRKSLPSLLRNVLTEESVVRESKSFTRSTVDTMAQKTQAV
As to the kind of experiment: Displacement of [125I-C5a] from C5a receptor in human PBMC by scintillation counting.

The species named for the next test is Homo sapiens. As to the kind of experiment: Selectivity for human C3a receptor over human C5a receptor.
The target of test [4] is T3, C3a anaphylatoxin chemotactic receptor (Homo sapiens) (UniProt Q16581).
T3 sequence (whole entry): T1 sequence (Q16581 whole entry)
Put plainly: Agonist activity at human C3a receptor in human U937 cells assessed as induction of intracellular calcium release at 100 uM. The format is functional, cell-based. Particulars: U-937.

Test [5] concerns the target T1, C3a anaphylatoxin chemotactic receptor. As to the kind of experiment: Antagonist activity at human C3a receptor in human U937 cells assessed as inhibition of intracellular calcium mobilization. The format is functional, cell-based, U-937.
For test [6], the target named is T3, C3a anaphylatoxin chemotactic receptor (Homo sapiens). Put plainly: Agonist activity at human C3a receptor in human U937 cells assessed as induction of intracellular calcium release at 1 mM. It counts as functional, cell-based. Particulars: U-937.
Test [7] concerns the target T4, C5a anaphylatoxin chemotactic receptor 1 (Homo sapiens) (UniProt P21730).
T4 sequence (whole entry): T2 sequence (P21730 whole entry)
As to the kind of experiment: Displacement of […] from C5a receptor in human PBMC at 1 mM by scintillation counting.

Test [8] addresses T3, C3a anaphylatoxin chemotactic receptor (Homo sapiens). Put plainly: Agonist activity at human C3a receptor in human U937 cells assessed as induction of intracellular calcium release at 10 uM. It counts as functional, cell-based. The settings on record: U-937.
Test [9] shares this target. As to the kind of experiment: Displacement of [125I-C3a] from C3a receptor in human PBMC at 1 mM by scintillation counting.

Regarding `CSCC[C@H](NC(=O)[C@@H]1CCCN1C(=O)[C@H](CCCCN)NC(=O)[C@H](Cc1ccccc1)NC(=O)[C@H](CO)NC(=O)[C@@H](N)Cc1ccc(O)cc1)C(=O)N1CCC[C@H]1C(=O)N[C@@H](CC(C)C)C(=O)N(C)[C@H](C)C(=O)N[C@@H](CCCN=C(N)N)C(=O)O`, the figures for the pIC50 in test [1] and in test [3] were 7.89 and 5.70, respectively. The pEC50 in [2] is 6.89.

In the case of `CSCC[C@H](NC(=O)[C@H](CC(=O)O)N(C)C(=O)[C@H](CCCCN)NC(=O)[C@H](Cc1ccccc1)NC(=O)[C@H](CO)NC(=O)[C@@H](N)Cc1ccc(O)cc1)C(=O)N1CCC[C@H]1C(=O)N[C@@H](CC(C)C)C(=O)N[C@H](C)C(=O)N[C@@H](CCCNC(=N)N)C(=O)O`, the pIC50 in [1] was 6.13; in test [3] it was 4.54. For the same compound, the pEC50 in test [2] was 5.85.

Turning to `CC(C)C[C@H](NC(=O)[C@@H](N)Cc1ccccc1)C(=O)N[C@H](C(=O)N[C@@H](CC1CCCCC1)C(=O)N[C@@H](C)C(=O)N[C@@H](CCCNC(=N)N)C(=O)O)[C@@H](C)O`, in the test listed under Homo sapiens, the Selectivity ratio was over 100. The negative-log IC50 (pIC50) in [1] and in test [5] was 6.62 in each case. For the same compound, the result in test [4], in test [6] and in test [7] was inactive.

For `N=C(N)NCCC[C@H](NC(=O)COCC(c1ccccc1)c1ccccc1)C(=O)O`, the outcome in test [8], in [6] and in [7] was inactive. Further, the pIC50 is 6.85 in [1] and 5.89 in [5].

Regarding `CC(=O)N[C@@H](Cc1ccccc1)C(=O)N[C@H]1CCCNC(=O)[C@H](CCCN=C(N)N)NC(=O)[C@H](Cc2c[nH]c3ccccc23)NC(=O)[C@@H](CC2CCCCC2)NC(=O)[C@@H]2CCCN2C1=O`, the outcome in test [6] and in test [9] was inactive.

As for `CSCC[C@H](NC(=O)[C@@H]1CCCN1C(=O)[C@H](CCCCN)NC(=O)[C@H](Cc1cnc[nH]1)NC(=O)[C@H](CO)NC(=O)[C@@H](N)Cc1ccc(O)cc1)C(=O)N1CCC[C@H]1C(=O)N[C@@H](CC(C)C)C(=O)N[C@H](C)C(=O)N[C@@H](CCCNC(=N)N)C(=O)O`, the result in test [7] and in test [9] was inactive.

Turning to `CC(C)C[C@H](NC(=O)[C@H](CC(=O)O)NC(=O)[C@H](C)NC(=O)[C@H](CC(C)C)NC(=O)[C@@H](NC(=O)[C@H](CC(C)C)NC(=O)[C@@H](N)Cc1cnc[nH]1)[C@@H](C)O)C(=O)N[C@@H](CC(C)C)C(=O)N[C@@H](CS)C(=O)N[C@@H](CS)C(=O)N[C@@H](CC(C)C)C(=O)N[C@@H](CO)C(=O)N[C@@H](CC(C)C)C(=O)N1CCC[C@H]1C(=O)N[C@@H](Cc1ccccc1)C(=O)O` (H-HLTLADLLCCLSLPF-OH), the pIC50 in test [1] is 6.60; in [3] it was 6.25. Besides, the pEC50 in test [2] is 5.74. For the same compound, the EC50 in [2] (read-out: pEC50 (converted)) is 1580 nM.

On to `CC(C)C[C@H](NC(=O)[C@@H]1CCCN1C(=O)[C@@H](N)Cc1c[nH]c2ccccc12)C(=O)N1CCC[C@H]1C(=O)N[C@@H](CCCNC(=N)N)C(=O)O` (H-WPLPR-OH), for which the outcome in test [8], in test [6] and in [7] was inactive. Moreover, the pIC50 in [1] was 4.57. The IC50 in test [1] (read-out: pIC50 (converted)) is 31600 nM.

As for `CC[C@H](C)[C@H](NC(=O)[C@H](C)NC(=O)[C@H](CC(N)=O)NC(=O)[C@@H](NC(=O)[C@@H](NC(=O)[C@H](CCCNC(=N)N)NC(=O)[C@H](CCCCN)NC(=O)[C@H](C)NC(=O)[C@H](CCC(=O)O)NC(=O)[C@H](Cc1ccccc1)NC(=O)[C@H](C)NC(=O)[C@@H](NC(=O)[C@@H](NC(=O)[C@@H](N)Cc1c[nH]c2ccccc12)C(C)C)[C@@H](C)O)[C@@H](C)O)[C@@H](C)CC)C(=O)N[C@@H](Cc1c[nH]c2ccccc12)C(=O)O` (H-WVTAFEAKRTINAIW-OH), the pIC50 is 5.80 in test [1] and 5.77 in test [3]. In addition, the pEC50 in test [2] is 4.62.

Consider `CC(C)C[C@H](NC(=O)[C@@H]1CCCN1C(=O)[C@@H](N)Cc1ccc(O)cc1)C(=O)N1CCC[C@H]1C(=O)N[C@@H](CCCNC(=N)N)C(=O)O` (H-YPLPR-OH), for which the outcome in [8], in test [6], in test [7] and in test [9] was inactive.

In general, pIC50 refers to the IC50 on a negative log10 scale, so that one unit is a factor of ten. The term pEC50 denotes the negative decadic logarithm of the EC50, by convention in mol/L.
